PubChem BioAssay (NCI)
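Five concentrations, 48 hours, 96-well plates. GI50 = concentration required for 50% inhibition of growth. Definition used: TGI = concentration required for complete inhibition of growth.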

How the values were obtained:
Assay in all cases: NCI anticancer screen, dose series, 48 h
[1] = test system: 786-0 renal
[2] = test system: A498 renal
[3] = test system: A549 NSCLC
[4] = test system: ACHN renal
[5] = test system: BT-549 breast
[6] = test system: CAKI-1 renal
[7] = test system: CCRF-CEM leukemia
[8] = test system: DU-145 prostate
[9] = test system: EKVX NSCLC
[10] = test system: HCC-2998 colon
[11] = test system: HCT-116 colon
[12] = test system: HCT-15 colon
[13] = test system: HL-60(TB) leukemia
[14] = test system: HOP-62 NSCLC
[15] = test system: HS 578T breast
[16] = test system: HT29 colon
[17] = test system: IGROV1 ovarian
[18] = test system: K-562 leukemia
[19] = test system: KM12 colon
[20] = test system: LOX IMVI melanoma
[21] = test system: M14 melanoma
[22] = test system: MALME-3M melanoma
[23] = test system: MCF7 breast
[24] = test system: MDA-MB-231 breast
[25] = test system: MDA-MB-435
[26] = test system: MOLT-4 leukemia
[27] = test system: NCI-H226 lung
[28] = test system: NCI-H23 lung
[29] = test system: NCI-H460 lung
[30] = test system: NCI-H522 lung
[31] = test system: NCI/ADR-RES ovarian
[32] = test system: OVCAR-4 ovarian
[33] = test system: OVCAR-5 ovarian
[34] = test system: OVCAR-8 ovarian
[35] = test system: PC-3 prostate
[36] = test system: RPMI-8226 leukemia
[37] = test system: SF-268 CNS
[38] = test system: SF-295 CNS
[39] = test system: SF-539 CNS
[40] = test system: SK-MEL-2 melanoma
[41] = test system: SK-MEL-28 melanoma
[42] = test system: SK-MEL-5 melanoma
[43] = test system: SK-OV-3 ovarian
[44] = test system: SN12C renal
[45] = test system: SNB-19 CNS
[46] = test system: SNB-75 CNS
[47] = test system: SR leukemia
[48] = test system: SW-620 colon
[49] = test system: T-47D breast
[50] = test system: TK-10 renal
[51] = test system: U251 CNS
[52] = test system: UACC-257 melanoma
[53] = test system: UACC-62 melanoma
[54] = test system: UO-31 renal

## COc1cc(-c2nnc(SCc3ccc(O)c4ncccc34)n2-c2ccccc2)cc(OC)c1OC
[1]
  GI50: 498 nM
  TGI: > 20900 nM
[2]
  GI50: 320 nM
  TGI: 2320 nM
[3]
  GI50: 412 nM
  TGI: > 100000 nM
[4]
  GI50: 285 nM
  TGI: > 100000 nM
[5]
  GI50: 178 nM
  TGI: > 26000 nM
[6]
  GI50: 274 nM
  TGI: > 100000 nM
[7]
  GI50: 188 nM
  TGI: > 100000 nM
[8]
  GI50: 273 nM
  TGI: > 100000 nM
[9]
  GI50: 367 nM
  TGI: > 100000 nM
[10]
  GI50: 447 nM
  TGI: > 100000 nM
[11]
  GI50: 97.9 nM
  TGI: > 40300 nM
[12]
  GI50: 53 nM
  TGI: > 100000 nM
[13]
  GI50: 276 nM
[14]
  GI50: 261 nM
[15]
  GI50: 161 nM
[16]
  GI50: 2040 nM
  TGI: > 100000 nM
[17]
  GI50: 272 nM
  TGI: > 100000 nM
[18]
  GI50: 83 nM
  TGI: > 100000 nM
[19]
  GI50: 336 nM
  TGI: > 100000 nM
[20]
  GI50: 180 nM
  TGI: 4440 nM
[21]
  GI50: 386 nM
  TGI: 2420 nM
[22]
  GI50: 336 nM
  TGI: > 20600 nM
[23]
  GI50: 37.7 nM
  TGI: > 100000 nM
[24]
  GI50: 390 nM
  TGI: > 100000 nM
[25]
  GI50: 194 nM
  TGI: > 100000 nM
[26]
  GI50: 294 nM
  TGI: > 100000 nM
[27]
  GI50: 359 nM
  TGI: > 100000 nM
[28]
  GI50: 75.7 nM
  TGI: > 100000 nM
[29]
  GI50: 50 nM
  TGI: 2030 nM
[30]
  GI50: 86.3 nM
  TGI: 921 nM
[31]
  GI50: 67.8 nM
  TGI: > 100000 nM
[32]
  GI50: 400 nM
  TGI: > 100000 nM
[33]
  GI50: 668 nM
  TGI: > 100000 nM
[34]
  GI50: 102 nM
  TGI: > 100000 nM
[35]
  GI50: 87.4 nM
  TGI: > 100000 nM
[36]
  GI50: 190 nM
  TGI: > 100000 nM
[37]
  GI50: 218 nM
  TGI: > 100000 nM
[38]
  GI50: 200 nM
  TGI: > 100000 nM
[39]
  GI50: 262 nM
[40]
  GI50: 197 nM
  TGI: 626 nM
[41]
  GI50: 367 nM
  TGI: > 100000 nM
[42]
  GI50: 207 nM
  TGI: 899 nM
[43]
  GI50: 302 nM
  TGI: 23500 nM
[44]
  GI50: 211 nM
  TGI: > 100000 nM
[45]
  GI50: 128 nM
  TGI: > 100000 nM
[46]
  GI50: 229 nM
  TGI: > 20200 nM
[47]
  GI50: 140 nM
  TGI: > 100000 nM
[48]
  GI50: 158 nM
  TGI: > 100000 nM
[49]
  GI50: 71.2 nM
  TGI: > 100000 nM
[50]
  GI50: 291 nM
  TGI: > 100000 nM
[51]
  GI50: 66 nM
  TGI: > 100000 nM
[52]
  GI50: 342 nM
  TGI: 3220 nM
[53]
  GI50: 331 nM
  TGI: 2340 nM
[54]
  GI50: 113 nM
  TGI: 991 nM
